Assay results taken from patent US6570004B1 (priority 1996, dated 2003).

System: dapE- H. pylori mutant
Format: cell-based, Helicobacter pylori

N[C@H](CCC[C@H](N)C(=O)O)C(=O)O [DAP, diaminopimelic acid]
Minimum DAP concentration required for survival of the dapE− mutant: 0.2 mM
